In patent US11702424B2, “Bicyclic-fused heteroaryl or aryl compounds” (Pfizer Inc., priority 2014, dated 2023):

What was measured:
serum TNF = assay: In Vivo Mouse LPS/D-Gal Challenge Model; conditions: oral, serum TNF vs. vehicle
Protocol: In Vivo Mouse LPS/D-Gal Challenge Model.
Efficacy of IRAK4 compounds of the present invention was also evaluated in an in vivo mouse model of endotoxin induced (Lipopolysaccharide (LPS)) inflammation. See: S. Copeland, H. W. Warren, S. F. Lowry, S. E. Calvano, and D. Remick, Clin. Diagn. Lab. Immnol. 2005, 12(1), 60-67. An exemplary protocol for this in vivo model follows.
Female C57/BL6 mice, 8 to 10 weeks old, are orally administered either vehicle or formulated IRAK-4 compound 1 hour prior to the challenge. Vehicle or IRAK4 compound is administered by oral gavage at a volume of 10 mL/kg. One hour post oral delivery of vehicle or compound, the animals are challenged with an intraperitoneal injection (IP) of a solution containing 1 μg/mL LPS and 80 mg/mL D-gal. Each mouse is injected with […] of the solution, for a final challenge dose of 100 ng LPS and 8 mg D-gal. Ninety minutes post LPS/D-gal challenge, animals are euthanized and blood collected. Blood is allowed to clot at room temperature and serum is separated by centrifugation and stored at −80° C. for analysis. Serum TNF and IL-6 are measured by Meso Scale Discovery (MSD) multiplex platform.
The groups consisted of N=10 animals/group. Naïve animals and vehicle control groups were run with each study. Mean cytokine data was plotted and students T-test was performed to calculate significance (t-test, p<0.05 vs. vehicle) of IRAK4 treated group vs. vehicle treated group. Percent inhibition of cytokine induction was calculated for IRAK4 treated group vs. vehicle treated group.
Table 4 contains data from multiple studies with columns for Compound, Dose in mg/kg (mpk) and % inhibition of serum TNF. In cases where doses of certain compounds were repeated in multiple experiments, the average percent inhibition of TNF and standard deviation is shown in the table.

[1] = tested on: collagen-induced arthritis; assay: In Vivo Rat Collagen-Induced Arthritis Model; conditions: Lewis rat CIA; for days on which hind paw swelling in CIA rats was significantly reduced (t-test, p<0.05 vs. vehicle): paw volume by plethysmograph
Protocol: In Vivo Rat Collagen-Induced Arthritis Model.
Efficacy of IRAK4 compounds of the present invention was also evaluated in a rat in vivo model of rheumatoid arthritis (M. Hegen, J. C. Keith, Jr, M. Collins, C. L. Nickerson-Nutter, Ann. Rheum. Dis. 2008, 67, 1505-1515). An exemplary protocol for this in vivo model follows.
Female Lewis rats, approximately 7 weeks old, were immunized with an emulsion of type II collagen (CII) and incomplete Freund's adjuvant (IFA) on day 0 and received a boost of CII/IFA on day 7. Hind paw volume increase was taken by plethysmograph. Animals were randomly enrolled into treatment groups based on the development of disease. Beginning on day 11 post immunization, rats were enrolled into random treatment groups based on an increase in a single hind paw volume compared to day 7 post immunization baseline measurements.
Ten rats were enrolled per treatment group with the exception of the naive control group, which contained two rats. Day 0 was designated as the first treatment day, and paw measurements are taken daily by plethysmograph. The rats were weighed on a daily basis.
IRAK4 inhibitors are efficacious in the Lewis rat model of collagen-induced arthritis.

[2] = biological target: human IRAK4 FL (Full Length) (Homo sapiens (Human), UniProt Q9NWZ3); assay: IRAK4 Enzymatic DELFIA Assay, Protocol A; assay type: biochemical; conditions: 0.6 mM ATP (KM)
Sequence of human IRAK4 FL (Full Length) (Q9NWZ3 whole entry): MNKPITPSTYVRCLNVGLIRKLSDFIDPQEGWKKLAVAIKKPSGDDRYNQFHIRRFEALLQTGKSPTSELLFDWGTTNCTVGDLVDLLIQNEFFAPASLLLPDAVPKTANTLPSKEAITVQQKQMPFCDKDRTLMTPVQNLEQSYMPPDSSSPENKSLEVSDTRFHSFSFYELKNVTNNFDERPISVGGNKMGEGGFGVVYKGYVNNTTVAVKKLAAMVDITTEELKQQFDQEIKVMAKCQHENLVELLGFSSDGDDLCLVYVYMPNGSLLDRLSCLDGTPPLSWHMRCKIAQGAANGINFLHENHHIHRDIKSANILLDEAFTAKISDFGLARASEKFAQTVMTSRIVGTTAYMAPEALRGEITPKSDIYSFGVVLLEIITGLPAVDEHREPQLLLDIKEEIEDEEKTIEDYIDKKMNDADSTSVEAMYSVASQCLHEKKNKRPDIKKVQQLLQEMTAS

Compound: COc1cc2c(OC[C@H]3NC(=O)[C@@H](F)[C@H]3C)nccc2cc1C(N)=O [Example 189, 1-{[(2S,3S,4S)-4-fluoro-3-methyl-5-oxopyrrolidin-2-yl]methoxy}-7-methoxyisoquinoline-6-carboxamide]
- % inhib TNF (serum TNF; dose 30 mpk): 40%

Compound: COc1cc2c(OC[C@@H]3CCC(=O)N3)cccc2cc1C(N)=O [Example 173, 3-methoxy-5-{[(2S)-5-oxopyrrolidin-2-yl]methoxy}naphthalene-2-carboxamide]
- % inhib TNF (serum TNF; dose 30 mpk): 55%
- % inhib TNF (serum TNF; dose 100 mpk): 98%

Compound: Cc1ccc(-n2nc(C(C)(C)C)cc2NC(=O)Nc2ccc(OCCN3CCOCC3)c3ccccc23)cc1 [BIRB796, reference compound]
- days on which hind paw swelling in CIA rats was significantly reduced (t-test, p<0.05 vs. vehicle) ([1]; 30 mg/kg PO, QD, positive control (p38 inhibitor)): Day 1-Day 8

Compound: COc1cc2c(OC[C@@H]3C[C@](C)(F)C(=O)N3)cccc2cc1C(N)=O [Example 194, 5-{[(2S,4S)-4-fluoro-4-methyl-5-oxopyrrolidin-2-yl]methoxy}-3-methoxynaphthalene-2-carboxamide]
- % inhib TNF (serum TNF; dose 30 mpk): 76%

Compound: CC(C)Oc1cc2c(OC[C@@H]3CCC(=O)N3)nccc2cc1C(N)=O [Example 26, 1-{[(2S)-5-oxopyrrolidin-2-yl]methoxy}-7-(propan-2-yloxy)isoquinoline-6-carboxamide]
- hind paw swelling (delta paw volume) ([1]; 10 mg/kg PO, BID): transiently significant reduction in hind paw swelling only on Day 5 and Day 6
- days on which hind paw swelling in CIA rats was significantly reduced (t-test, p<0.05 vs. vehicle) ([1]; 30 mg/kg PO, BID, therapeutic treatment for 8 days): Day 2-Day 8
- days on which hind paw swelling in CIA rats was significantly reduced (t-test, p<0.05 vs. vehicle) ([1]; 100 mg/kg PO, BID, therapeutic treatment for 8 days): Day 1-Day 8 (end)
- hind paw swelling (delta paw volume) ([1]; therapeutic treatment BID daily for 8 days, t-test p<0.05 vs. vehicle): reduced the hind paw swelling in CIA rats significantly

Compound: CC(C)Oc1cc2c(OC[C@@H]3C[C@@H](C4(O)COC4)C(=O)N3)nccc2cc1C(N)=O [Example 193, 1-{[(2S,4S)-4-(3-hydroxyoxetan-3-yl)-5-oxopyrrolidin-2-yl]methoxy}-7-(propan-2-yloxy)isoquinoline-6-carboxamide]
- IC50 [2]: 238 nM
